Assay results published in ChEMBL document CHEMBL3638391, “Flap modulators” (2015).

Biological target: T1, Arachidonate 5-lipoxygenase-activating protein (Homo sapiens, UniProt P20292)
T1 sequence (P20292 whole entry): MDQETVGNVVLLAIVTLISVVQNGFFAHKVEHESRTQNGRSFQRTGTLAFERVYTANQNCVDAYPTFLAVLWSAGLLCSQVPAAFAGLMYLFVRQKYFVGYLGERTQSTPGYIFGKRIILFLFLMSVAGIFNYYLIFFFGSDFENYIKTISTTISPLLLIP
Assay: Homogeneous Time Resolved Fluorescence Assay: The assay below is used to test the modulatory activity of compounds against FLAP. Human and mouse FLAP-encoding DNA was amplified by polymerase chain reaction and cloned into pFastBacl (Invitrogen) with a NH2-terminal 6-His tag for expression in Spodoptera frugiperda (Sf-9) cells. FLAP-containing membranes were prepared as was a FITC-labeled FLAP …
Description: Homogeneous Time Resolved Fluorescence Assay: The assay below is used to test the modulatory activity of compounds against FLAP. Human and mouse FLAP-encoding DNA was amplified by polymerase chain reaction and cloned into pFastBacl (Invitrogen) with a NH2-terminal 6-His tag for expression in Spodoptera frugiperda (Sf-9) cells. FLAP-containing membranes were prepared as was a FITC-labeled FLAP modulator [5-[({[2-(2-{3-[3-(tert-Butylsulfanyl)-1-(4-chlorobenzyl)-5-(quinolin-2-ylmethoxy)-1H-indol-2-yl]-2,2-dimethylpropanoyl}hydrazino)-2-oxoethyl]sulfanyl}acetyl)amino]-2-(6-hydroxy-3-oxo-3H-xanthen-9-yl)benzoic acid]. The FLAP binding assay is performed in HTRF format (homogeneous time resolved fluorescence).

- Ki: 3.2 nM
SMILES: C[C@@H]([C@@H](O)c1ccccc1)N(C)S(=O)(=O)c1ccccc1-c1ccc(-c2ccc(N)nc2)c(F)c1
